The results in this text go back to patent US4667020A, “Aromatic disazo dyes and liquid-crystalline materials containing these dyes” (BASF Aktiengesellschaft, priority 1984, dated 1987).

Series [1] can be described thus: solubility L in liquid crystal mixture. The format is physicochemical. The settings on record: 1 week stirring. The protocol: (§1) The degree of order S measured at room temperature, the solubility L, likewise determined at room temperature, and the Merck liquid crystal mixtures used are summarized in Table 1 for the Examples 1, 2 and 4-12.
The solubility was determined as follows:
50 mg of the particular dye were stirred in 1 ml of liquid-crystalline mixture for 1 week at room temperature, the saturated solution was separated from the residue by centrifuging, and the solubility was determined by comparison of the extinctions.

Series [2] is described as follows: degree of order S in liquid crystal mixture. Type of series: physicochemical. The protocol:
as §1
The degree of order S was determined in commercial measuring cells with a homogeneous edge orientation, using the known equation [formula] (polyimide). The dichroic ratio CR was determined by measuring the extinctions E.parallel. (measurement with light polarized parallel to the preferred direction of the nematic phase) and E.perp. (measurement with light polarized at right angles to the preferred direction of the nematic phase) and using the relationship [formula] the dye concentration being chosen so that E.parallel. was from 1 to 2. The measurements were carried out on a Beckmann Acta CIII spectrophotometer.

Where [3] appears, read: liquid crystal mixture ZLI 1840.
Where [4] appears, read: liquid crystal mixture ZLI 1957/5.
[5] abbreviates: liquid crystal mixture ZLI 2452.

SMILES strings stand for the structures.

Regarding `CCCCc1nnc(-c2ccc(N=Nc3cc(C)c(N=Nc4ccc(OCc5ccc(C6CCC(CC)CC6)cc5)cc4C)cc3C)cc2)o1` (stereo not drawn) [Example 1], the “Solubility L (at room temp.)” value in series [1] (setting [3]) is reported as 1.6%; in series [1] (setting [4]), 1.3%. In addition, the “Degree of order S (at room temp.)” value in series [2] (setting [3]) and in series [2] (setting [4]) was 0.76 each time.
For `CCCCSc1nnc(-c2ccc(N=Nc3cc(C)c(N=Nc4ccc(N(C)CCCC)cc4)cc3C)cc2)s1` [Example 2], the “Solubility L (at room temp.)” value in series [1] (setting [4]) was 1.1%. For the same compound, the “Degree of order S (at room temp.)” value in series [2] (setting [4]) is reported as 0.74.
As to `Cc1cc(N=Nc2ccc(N(C)C)cc2)c(C)cc1N=Nc1ccc(-c2nnc(SCc3ccccc3)s2)cc1` [Example 4], the “Solubility L (at room temp.)” value in series [1] (setting [3]) is given as < 0.2%. Further, the “Degree of order S (at room temp.)” value in series [2] (setting [3]) was 0.78.
For `CCCCc1nnc(-c2ccc(N=Nc3cc(C)c(N=Nc4ccc(N(C)CCCC)cc4)cc3C)cc2)o1` [Example 5], the “Solubility L (at room temp.)” value in series [1] (setting [3]) is listed as 1.4%; in series [1] (setting [4]), 1.3%. In addition, the “Degree of order S (at room temp.)” value in series [2] (setting [3]) and in series [2] (setting [4]) was 0.73 in each case.
As for `CCCCC(CC)c1nnc(-c2ccc(N=Nc3cc(C)c(N=Nc4ccc(N(C)CCCC)cc4)cc3C)cc2)o1` (stereo not drawn) [Example 6], in series [1] (setting [4]), the “Solubility L (at room temp.)” value is > 5%. Besides, the “Degree of order S (at room temp.)” value in series [2] (setting [4]) is listed as 0.68.
As to `CCOC(=O)c1sc(-c2ccc(N=Nc3ccc(N=Nc4ccc(N(C)C)cc4)c4ccccc34)cc2)nc1C` [Example 7], the “Solubility L (at room temp.)” value in series [1] (setting [3]) was 1.4%. Besides, the “Degree of order S (at room temp.)” value in series [2] (setting [3]) is 0.74.
Take `CCCCSc1nnc(-c2ccc(N=Nc3ccc(N=Nc4ccc(N(C)C)cc4)c4ccccc34)cc2)s1` [Example 8]: the “Solubility L (at room temp.)” value is given as 1.3% in series [1] (setting [3]) and 0.5% in series [1] (setting [4]). The “Degree of order S (at room temp.)” value stood at 0.76 in series [2] (setting [3]) and 0.78 in series [2] (setting [4]).
The matching figures for `CCCCSc1nnc(-c2ccc(N=Nc3ccc(N=Nc4ccc(N(C)CCCC)cc4)c4ccccc34)cc2)s1` [Example 9]: 0.6%, 0.3%, 0.79 and 0.77.
For the compound `CCCCc1nnc(-c2ccc(N=Nc3ccc(N=Nc4ccc(N(C)CCCC)cc4)c4ccccc34)cc2)o1` [Example 10], in series [1] (setting [4]), the “Solubility L (at room temp.)” value was found to be 1.2%. For the same compound, the “Degree of order S (at room temp.)” value in series [2] (setting [4]) was 0.74.
The matching figures for `CCCCC(CC)c1nnc(-c2ccc(N=Nc3ccc(N=Nc4ccc(N(C)CCCC)cc4)c4ccccc34)cc2)o1` (stereo not drawn) [Example 11]: > 5% and 0.74.
The matching figures for `CCCCC(CC)c1nnc(-c2ccc(N=Nc3ccc(N=Nc4ccc(NCC)c5ccccc45)c4ccccc34)cc2)o1` (stereo not drawn) [Example 12]: 0.8% and 0.71.
The matching figures for `CCCCCCCCSc1nnc(-c2ccc(N=Nc3ccc(N=Nc4ccc(N(C)CCCC)cc4)c4ccccc34)cc2)s1` [Example 14]: 0.7% and 0.77.
With `CCCCC(CC)CSc1nnc(-c2ccc(N=Nc3ccc(N=Nc4ccc(N(C)CCCC)cc4)c4ccccc34)cc2)s1` (stereo not drawn) [Example 15], the “Solubility L (at room temp.)” value in series [1] (setting [5]) was > 5%. Further, the “Degree of order S (at room temp.)” value in series [2] (setting [5]) is listed as 0.8.
The matching figures for `CCCCCCCC(C)Sc1nnc(-c2ccc(N=Nc3ccc(N=Nc4ccc(N(C)CCCC)cc4)c4ccccc34)cc2)s1` (stereo not drawn) [Example 16]: > 5% and 0.81.
In the case of `CCCCC1CCC(c2ccc(COc3ccc(N=Nc4ccc(N=Nc5ccc(-c6nnc(SCC(CC)CCCC)s6)cc5)c5ccccc45)c(C)c3)cc2)CC1` (stereo not drawn) [Example 18], the “Solubility L (at room temp.)” value in series [1] (setting [5]) stood at 3.1%. Also, the “Degree of order S (at room temp.)” value in series [2] (setting [5]) was 0.82.
Turning to `CCCCCCCC(C)Sc1nnc(-c2ccc(N=Nc3ccc(N=Nc4ccc(OCc5ccc(C6CCC(CCCC)CC6)cc5)cc4C)c4ccccc34)cc2)s1` (stereo not drawn) [Example 19], the “Solubility L (at room temp.)” value in series [1] (setting [4]) and in series [1] (setting [5]) was > 5% throughout. Also, the “Degree of order S (at room temp.)” value in series [2] (setting [4]) came to 0.77; in series [2] (setting [5]), 0.84.
